In patent US8263757B2, “Promiscuous HER-2/Neu CD4 T cell epitopes” (Dendreon Corporation, priority 2006, dated 2012):

Assays:
[1] = test system: T cell clone HER500.23c21; assay: Minimal epitope: truncated HERp270-284 peptides presented by EBV LcL lines of diverse HLA-DRB1 alleles to HER500.23c21; type: cell-based, human; conditions: presented by EBV LcL lines representing HLA-DRB1 alleles *0301, *0302, *1301 and *1402
Description: FIG. 5. Graphic depiction of IFNγ production by HER500.23c21 following exposure to peptides presented by EBV LcL lines of diverse HLA-DRb1 alleles. The peptides were 9-mers (SEQ ID NOS:3-9) within the HER-2/Neu peptide 270-284 (SEQ ID NO:2).
FIG. 6. Graphic depiction of IFNγ production by HER500.23c21 following exposure to peptides presented by EBV LcL lines of diverse HLA-DRb1 alleles. The peptides were 10- or 11-mers (SEQ ID NOs:12-15, 10, 1, 16-19 and 11, respectively) within the HER-2/Neu peptide 270-284.
Because of the clear response of HER500.23c21 to HER-2/Neu protein sequences, the specific epitope recognized by HER500.23c21 was mapped using peptides. HER500.23c21 was tested against a panel of 125 individual overlapping 15-mer peptides covering the HER-2/Neu protein sequences within HER500. Each peptide was used at 1 ug/ml with autologous EBV LCL cells as antigen presenting cells. […]
In this series of experiments, additional peptides derived from the HER-2/Neu protein were tested for their potential as promiscuous MHC Class II HER-2/neu epitopes. […] Supernatants were harvested and analyzed for IFNγ production using ELISA. […] Results of the IFNγ produced by clone HER500.23c21 in response to peptide and each HLA-DR allele are reported in pg/mL of IFNγ or as absorbance at 492 nm.

[2] = test system: T cell clone HER500.23c21; assay: Antigen-specific stimulation of T cell clone HER500.23c21 by protein antigens presented by autologous PBMC (IFNγ ELISA, IL-2 by HT-2 proliferation); type: cell-based, human; conditions: autologous PBMC presentation, increasing doses of antigen; for IFNγ and IL-2 production by HER500.23c21 in response to antigen: 48 hours
Description: FIG. 1. T cell clone HER500.23c21 is HER-2/Neu specific. (A) HER500 (amino acids ▪ and BA7072 (HER500/GM-CSF fusion protein) ♦ specific IFNγ production by HER500.23c21 was measured using ELISA after autologous PBMC presentation of the antigens; background was also tested ▴. Assay was set up in triplicate in 96 well round bottom plates in complete IMDM media with 10% FBS. Autologous PBMCs were used at 2×10^5 cells/well and T cell clone HER500.23c21 was added at 1×10^5 cells/well. Antigens were at the final concentrations shown. Assay was incubated for 48 hours at 37° C. with 5% CO2 and supernatant was removed from wells to test for cytokine production. (A) IFNγ production. Data points shown represent the calculated pg/mL for each antigen concentration. (B) IL-2 production for the same assay was measured using HT-2 cell proliferation. Data points represent the mean CPM values for each antigen concentration.
Identification and Characterization of HER-2/neu specific T cell clones. Clones were screened for antigen specificity using autologous PBMC and antigen or autologous EBV-LcL and Her500 peptides. Stimulations were set up in 96 well round bottom plates in cRPMI+10% FBS media and incubated for 48 hours at 37° C. with 5% CO2. Additionally, clones were stained for CD4 and CD8 surface expression by flow cytometry.
Cytokine Production. To determine cytokine production in the antigen specific stimulation assays, after 48 hours, 200 μL of supernatant was pulled from cultures and tested for both IL-2 and IFNγ production. IL-2 production was measured using the IL-2 dependent line HT-2 (ATCC). HT-2 cells were grown in IMDM with 10% FBS and 100 uM NEAA, 1 mM Sodium Pyruvate, 2 mM L-glutamine, […], 50 U/mL Streptomycin, 20 mM HEPES and 20 uM 2-Mercaptoethanol (cIMDM+10% FBS) and fed twice a week with 20 ng/mL rIL-2. For the assay, 4 days after HT-2 cells were split, cells were washed with IMDM+10% FBS to remove all rIL-2, and cells were added to 96 well round bottom plates at 1×10^4 cells/well in cIMDM+10% FBS. Supernatants from antigen specific stimulation were added to wells and plates were incubated 24-30 hours at 37° C. The following day 1 μCi of ^3[H] TdR was added for the final 6 hours of the assay and plates were harvested to glass fiber filter mats and DNA incorporation of the radioisotope, or proliferative response, was determined by counts per minute using a liquid scintillation counter (PerkinElmer Life and Analytical Sciences, Inc. Boston, Mass.). IFNγ production was measured using anti-human IFNγ antibody pairs for ELISA (BD Pharmingen, San Diego, Calif.). […] 2M HCl was added to stop the reaction and plates were read for absorbance at 492 nm on a spectrophotometer. […]

Substance	Stimulation of HER500.23c21 [1]	dose dependence of HER500.23c21 response to protein [2]	IFNγ and IL-2 production by HER500.23c21 in response to antigen [2]
TYNTDTFESMP (HER-2p270-284 11-mer) [SEQ ID NO:11, 11-mer truncation of HERp270-284]	successful	–	–
BA7072: proprietary recombinant fusion protein: HER500 expressed as a fusion protein with hGM-CSF	–	dose dependent manner	specifically produced IFNγ and IL-2
VTYNTDTFESM (HER-2p270-284 11-mer) [SEQ ID NO:10, 11-mer truncation of HERp270-284]	successful	–	–
HER500: recombinant protein containing sequences from both the ECD and ICD of HER-2/neu; HER-2/neu portion of BA7072	–	dose dependent manner	specifically produced IFNγ and IL-2
